Results on two compounds are retold here after patent publication US6828450B2, “Triptycene analogs” (Kansas State University Research Foundation, priority 2000, dated 2004).

Series [1] concerns L1210 cells. In words: Protein synthesis (3H-leucine incorporation) in L1210 cells. The format is cell-based, murine. The method, then: FIG. 17. Comparison of the concentration-dependent inhibitions of protein synthesis by the TT analog TT2 (●) and DAU (∘) in L1210 cells in vitro. […] Protein synthesis in vehicle-treated control cells was 13,812±1,070 cpm (100±8%; striped area). The blank value (2,436±298 cpm) for cells incubated and pulse-labeled at 2° C. with 2.5 μCi of ^3H-leucine has been substracted from the results.
(§1) Except when otherwise specified, the cells were incubated at 37° C. for 90 min in the presence or absence of drugs and then pulse-labeled for an additional 30 min with 1 μCi of [methyl-^3H]thymidine (50 Ci/mmol; Amersham Corp., Arlington Heights, Ill.) to estimate the rate of DNA synthesis. […] After drying the filters, the radioactivity bound to the acid-precipitable material was determined by liquid scintillation counting (LSC) in 10 ml of Bio-Safe NA (Researeh Products International Corp., Mount Prospect, Ill.).

For series [2], the system named is HL-60-R8 cells. In words: HL-60-R8 (MDR) cell viability assay (MTS:PMS). The format is cell-based, human. As to conditions: read-out: IC50, decrease of HL-60-R8 cell viability. The text has this:
(§2) The MDR HL-60-RV and HL-60-R8 cells were developed in Melvin S. Center's laboratory (Kansas State University) and similarly maintained in RPMI 1640 medium in the absence of drugs (Marsh W, et al, Cancer Res 46: 4053-4057, 1986; McGrath T et al, and Center M S: Biochem Biophys Res Commun 145: 1171-1176, 1987; Marsh W and Center M S: Cancer Res 47: 5080-5086, 1987; McGrath T, et al, Biochem Pharmacol 38: 3611-3619, 1989; Marquardt D, et al, Cancer Res 50: 1426-1430, 1990; Marquardt D and Center M S: J Natl Cancer Inst 83: 1089-1109, 1991; Krishnamachary N and Center M S; Cancer Res 53: 3658-3661, 1993). Every 4 weeks, these HL-60-RV and HL-60-R8 sublines were exposed to 41 nM DAU for 48 h to stabilize their MDR phenotype. This concentration of DAU, which is not cytotoxic to MDR HL-60 sublines, was removed from the culture medium at least 48 h before experimentation. […] RFs were determined by dividing the IC50 of the MDR cells by that of the sensitive WT parent cell line.

Series [3] has as its system HL-60-RV cells. As to the kind of experiment: DNA synthesis in HL-60-RV cells. It counts as cell-based, human. Conditions: for IC50: read-out: IC50, inhibition of DNA synthesis in HL-60-RV cells.
For another series, the system named is HL-60-S cells. As to the kind of experiment: DNA cleavage in HL-60-S cells. It counts as cell-based, human. As to conditions: 24 h. The method, then: (§3) FIG. 23. Comparison of the concentration-dependent inductions of DNA cleavage by DAU (open symbols in A) and TT2 (closed symbols in B) at 24 h in HL-60-S (circles), HL-60-RV (squares) and HL-60-R8 (triangles) cells containing ^3H-prelabeled DNA in vitro. Results are expressed as [cpm in supernatant/cpm in supernatant+pellet]×100 at 24 h. For untreated controls (14.7±1.7% DNA fragmentation, striped areas), the supernatant (DNA fragments) is 12,815±1,358 cpm and the pellet (intact DNA) is 74,406±9,078 cpm.
as §2
Drug-induced DNA cleavage was determined by intact chromatin precipitation, using L1210, HL-60-S, HL-60-RV and HL-60-R8 cells which were prelabeled with 1 μCi of ^3H-thymidine for 2 h at 37° C., washed with 3×1 ml of ice-cold PBS, collected by centrifugation, and resuspended in fresh FCS-containing RPMI 1640 medium at a density of about 1×10^6 cells/0.5 ml for L1210 and 0.5×10^6 cells/0.5 ml for HL cells. Except when otherwise specified, such cells containing prelabeled DNA were then exposed for 24 h to TTs and drugs known to induce DNA fragmentation. After centrifugation at 200×g for 10 min to discard the drugs and wash the cells, the intact cell pellets were lysed for 30 min in 0.5 ml of HLB, centrifuged at 12,000×g for 30 min to collect the supernatants, and resuspended in 0.5 ml of HLB. After another similar centrifugation, the radioactivities in the pooled supernatants (detergent-soluble low molecular weight DNA fragments) and the pellet (intact chromatin DNA) were determined by LSC: % DNA fragmentation=[cpm in supernatant/cpm in supernatant+pellet]×100. Before being counted in 6 ml of Bio-Safe NA, the intact pelleted chromatin was incubated for 2 h at 60° C. in the presence of 0.6 ml of NCS tissue solubilizer (Amersham).

Series [4] deals with HL-60-R8 cells. As to the kind of experiment: DNA cleavage in HL-60-R8 cells. Conditions: HL-60-R8, 24 h. It counts as cell-based, human. The method, then:
as §3
as §2, with “phenotype.” for “phenotype. This concentration of DAU, which is not cytotoxic to MDR HL-60 sublines, was removed from the culture medium at least 48 h before experimentation.”, “line. […]” for “line.”

For series [5], the system named is HL-60-RV cells. In words: HL-60-RV (MDR) cell proliferation assay. It counts as cell-based, human. Conditions: for IC50: read-out: IC50, inhibition of HL-60-RV cell proliferation.
Text: as §2

Series [6] concerns L1210 cells. As to the kind of experiment: RNA synthesis (3H-uridine incorporation) in L1210 cells. The format is cell-based, murine. The method, then:
FIG. 16. Comparison of the concentration-dependent inhibitions of RNA synthesis by the TT analog TT2 (●) and DAU (∘) in L1210 cells in vitro. […] RNA synthesis in vehicle-treated control cells was 47,117±3,204 cpm (100±7%; striped area). The blank value (1,746±155 cpm) for cells incubated and pulse-labeled at 2° C. with 2 μCi of ^3H-uridine has been substracted from the results.
as §1

In series [7] the test system is HL-60-RV cells. As to the kind of experiment: cells. It counts as cell-based, human. As to conditions: for IC50: read-out: IC50, decrease of HL-60-RV cell viability.
Text: as §2

The mark [8] stands for this setting: HL-60-RV and HL-60-R8 vs HL-60-S.
Setting [9] is: HL-60-RV and HL-60-R8 vs HL-60-S, day 2.
The mark [10] stands for this setting: HL-60-RV and HL-60-R8 vs HL-60-S, day 4.

Each structure is given as a SMILES string. Values joined by “and” are separate entries in the source; they are usually repeats but may differ in a detail not shown here. Identical values can stand only once. Like-named read-outs stand apart in the source and are kept apart here.

For `COc1cccc2c1C(=O)c1c(O)c3c(c(O)c1C2=O)C[C@@](O)(C(C)=O)C[C@@H]3O[C@H]1C[C@H](N)[C@H](O)[C@H](C)O1` [DAU, daunomycin, reference compound], the “times DAU inhibits protein synthesis more effectively than TT2” value in the series on L1210 cells [1] (L1210) is ~3 times. The IC50 came out at 2500 nM with HL-60-R8 cells [2] (Homo sapiens, 48 h); 380 nM in the series on HL-60-R8 cells [2] (Homo sapiens, 96 h); 2500 nM with HL-60-RV cells [3] (Homo sapiens); 500 nM with HL-60-RV cells [5] (Homo sapiens, 48 h); 275 nM in the series on HL-60-RV cells [5] (Homo sapiens, 96 h); 450 nM in the series on HL-60-RV cells [7] (Homo sapiens, 96 h). Moreover, in the series on HL-60-RV cells [3] (setting [8]), the “RFs, DNA synthesis (IC50 of MDR cells / IC50 of WT HL-60-S)” value is on record as 8.1-11.9. Besides, the “times MDR sublines are less sensitive, DNA synthesis” value with HL-60-RV cells [3] (setting [8]) is reported as 10 times. The “DNA cleavage, % above control level” value was 67% in the series on HL-60-S cells (1.6 μM, control 15% DNA fragmentation) and 18% with HL-60-S cells (4 μM). Moreover, the “DNA cleavage, % below control level” value in the series with HL-60-S cells (10 μM) is 11%; in the series with HL-60-S cells (25 μM) it was 14%. In addition, the “DNA cleavage, % above control level (submaximal)” value in the series with HL-60-S cells (0.04-0.64 μM DAU) is reported as 11-58%. Further, the “reduction of the peak of maximal DNA cleavage relative to HL-60-S cells” value with HL-60-R8 cells [4] worked out at 60%. In the series with HL-60-RV cells [5] (setting [8]), the “times less effective as cytostatic agent in MDR than in WT HL-60 cells” value is on record as “about 30 times”. The entries for the “RFs, cell proliferation (IC50 of MDR cells / IC50 of WT HL-60-S)” value in the series on HL-60-RV cells [5] (setting [9]) and in the series on HL-60-RV cells [5] (setting [10]) were 22.9-35.7 and 25.0-30.6, respectively. Also, the “times DAU inhibits RNA synthesis more effectively than TT2” value in the series with L1210 cells [6] (L1210) is on record as “about 7.5 times”. Moreover, the “times less potent as cytotoxic agent in MDR than in WT HL-60 cells” value with HL-60-RV cells [7] (setting [8]) is given as “about 28 times”. The figures for the “RFs, cell viability (IC50 of MDR cells / IC50 of WT HL-60-S)” value in the series on HL-60-RV cells [7] (setting [9]) and in the series with HL-60-RV cells [7] (setting [10]) were 23.8-31.3 and 25.3-30.0, respectively.

`COC1=CC(=O)C2=C(C1=O)C1C3=C(C(=O)C=CC3=O)C2c2ccccc21` (stereo not drawn) [TT2, 2-Methoxy-9,10-dihydro-9,10-[1′,2′]benzenoanthracene-1,4,5,8-tetraone]: the IC50 is 6000 nM and ~6000 nM with L1210 cells [1] (3 h drug + 1 h pulse-labeling, read-out: IC50, inhibition of protein synthesis in L1210 cells); 1600 nM with HL-60-R8 cells [2] (day 2); 350 nM in the series on HL-60-R8 cells [2] (day 4); 2100 nM with HL-60-RV cells [3]; 500 nM with HL-60-RV cells [5] (day 2); 260 nM in the series with HL-60-RV cells [5] (day 4). For the same compound, the IC50 in the series with L1210 cells [6] (3 h drug + 1 h pulse-labeling, read-out: IC50, inhibition of RNA synthesis in L1210 cells) was 6000 nM and ~6000 nM; in the series with HL-60-RV cells [7] (day 2), 1100 nM; in the series with HL-60-RV cells [7] (day 4), 340 nM. In addition, the “RFs, DNA synthesis (IC50 of MDR cells / IC50 of WT HL-60-S)” value in the series with HL-60-RV cells [3] (setting [8]) was found to be 1.2. Besides, the entries for the “DNA cleavage, % above control level” value in the series on HL-60-S cells (4 μM) and in the series with HL-60-S cells (10 μM) were 37% and 14%, respectively. The “DNA cleavage, % below control level” value in the series with HL-60-S cells (25 μM) is 11%. In addition, in the series with HL-60-S cells (HL-60-S), the “times greater TT2 than DAU concentrations needed for more than 50% of DNA cleavage” value is “at least 2.5 times”. For the same compound, the “reduction of the peak of maximal DNA cleavage relative to HL-60-S cells” value with HL-60-R8 cells [4] stood at 35%. Moreover, the “RFs, tumor cell growth, viability and DNA synthesis together” value in the series on HL-60-RV cells [5] (setting [8]) is given as 0.9-1.5. Further, the “RFs, cell proliferation (IC50 of MDR cells / IC50 of WT HL-60-S)” value in the series with HL-60-RV cells [5] (setting [9]) is on record as 0.9-1.3; with HL-60-RV cells [5] (setting [10]) it was 0.9-1.0. Besides, the “RFs, cell viability (IC50 of MDR cells / IC50 of WT HL-60-S)” value in the series on HL-60-RV cells [7] (setting [9]) was 0.9-1.2; with HL-60-RV cells [7] (setting [10]), 1.5.
